Data: article PMC5564600 (Oncotarget, 2017)

Columns and labels:
Experiment in all cases: biochemical
Format in all cases: binding
panel of 442 kinases [1] = target: T1, panel of 442 kinases (Homo sapiens, UniProt P36894); details: BMPR1A; for remaining activity at 1 µM: read-out: % of control at 1 µM
T1 construct: purchased Ambit Biosciences (scanMAXX KINOMEscan)

panel of 442 kinases [2] = target: T2, panel of 442 kinases (Homo sapiens, UniProt Q99683); details: ASK1; for remaining activity at 1 µM: read-out: % of control at 1 µM
T2 construct: purchased Ambit Biosciences (scanMAXX KINOMEscan)
T2 sequence (Q99683 1-1374): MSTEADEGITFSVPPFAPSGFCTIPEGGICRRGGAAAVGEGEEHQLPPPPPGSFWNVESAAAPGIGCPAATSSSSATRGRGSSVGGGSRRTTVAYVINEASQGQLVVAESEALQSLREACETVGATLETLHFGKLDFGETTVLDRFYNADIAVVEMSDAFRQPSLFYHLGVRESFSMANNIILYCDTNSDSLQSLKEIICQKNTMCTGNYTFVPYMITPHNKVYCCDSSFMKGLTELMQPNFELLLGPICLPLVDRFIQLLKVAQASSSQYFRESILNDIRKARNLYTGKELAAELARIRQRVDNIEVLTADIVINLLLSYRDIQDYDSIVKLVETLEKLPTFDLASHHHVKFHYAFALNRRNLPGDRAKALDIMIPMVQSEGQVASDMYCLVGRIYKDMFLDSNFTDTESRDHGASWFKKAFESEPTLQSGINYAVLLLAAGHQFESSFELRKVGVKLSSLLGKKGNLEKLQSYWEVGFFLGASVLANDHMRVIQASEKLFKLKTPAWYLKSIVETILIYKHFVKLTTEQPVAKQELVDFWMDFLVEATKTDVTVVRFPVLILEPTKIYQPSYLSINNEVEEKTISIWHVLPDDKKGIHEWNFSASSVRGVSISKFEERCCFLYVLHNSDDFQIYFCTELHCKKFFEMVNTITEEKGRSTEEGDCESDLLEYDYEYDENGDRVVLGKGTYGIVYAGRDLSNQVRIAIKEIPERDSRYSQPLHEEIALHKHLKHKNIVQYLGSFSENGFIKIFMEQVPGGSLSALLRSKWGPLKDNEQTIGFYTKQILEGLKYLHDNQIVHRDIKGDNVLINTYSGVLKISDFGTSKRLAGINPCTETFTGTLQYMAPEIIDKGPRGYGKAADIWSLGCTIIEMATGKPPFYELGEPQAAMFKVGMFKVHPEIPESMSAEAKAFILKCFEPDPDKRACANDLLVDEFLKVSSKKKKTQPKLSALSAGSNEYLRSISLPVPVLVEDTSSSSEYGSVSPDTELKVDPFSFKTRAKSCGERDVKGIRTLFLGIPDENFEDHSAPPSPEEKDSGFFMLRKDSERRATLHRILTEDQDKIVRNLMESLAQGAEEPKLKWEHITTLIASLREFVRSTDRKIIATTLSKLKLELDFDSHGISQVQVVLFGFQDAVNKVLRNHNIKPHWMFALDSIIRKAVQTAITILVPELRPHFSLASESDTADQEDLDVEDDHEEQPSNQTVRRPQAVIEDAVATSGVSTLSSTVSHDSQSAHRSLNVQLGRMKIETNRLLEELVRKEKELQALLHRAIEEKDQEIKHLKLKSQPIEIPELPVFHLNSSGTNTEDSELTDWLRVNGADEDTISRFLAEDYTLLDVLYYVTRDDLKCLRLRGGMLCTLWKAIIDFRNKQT

panel of 442 kinases [3] = target: T3, panel of 442 kinases (Homo sapiens, UniProt P09769); details: FGR; for remaining activity at 1 µM: read-out: % of control at 1 µM
T3 construct: purchased Ambit Biosciences (scanMAXX KINOMEscan)
T3 sequence (P09769 whole entry): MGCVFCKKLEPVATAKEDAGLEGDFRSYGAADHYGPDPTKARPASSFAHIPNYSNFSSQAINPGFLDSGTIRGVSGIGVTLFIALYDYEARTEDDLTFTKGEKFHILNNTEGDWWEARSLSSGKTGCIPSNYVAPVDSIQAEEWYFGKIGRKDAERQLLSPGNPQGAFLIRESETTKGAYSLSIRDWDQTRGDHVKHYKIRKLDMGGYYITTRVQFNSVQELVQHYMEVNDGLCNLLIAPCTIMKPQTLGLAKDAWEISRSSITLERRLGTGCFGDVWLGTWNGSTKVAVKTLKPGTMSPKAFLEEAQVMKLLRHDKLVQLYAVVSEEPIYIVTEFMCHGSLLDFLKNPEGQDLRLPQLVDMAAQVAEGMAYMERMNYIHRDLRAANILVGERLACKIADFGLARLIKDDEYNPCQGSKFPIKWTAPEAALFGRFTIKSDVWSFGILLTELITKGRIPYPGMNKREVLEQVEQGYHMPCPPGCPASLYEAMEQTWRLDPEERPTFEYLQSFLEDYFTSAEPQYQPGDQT

panel of 442 kinases [4] = target: T4, panel of 442 kinases (Homo sapiens, UniProt Q14289); details: kinase PYK2; for remaining activity at 1 µM: read-out: PYK2 (% of control at 1 µM)
T4 construct: purchased Ambit Biosciences (scanMAXX KINOMEscan)
T4 sequence (Q14289 whole entry): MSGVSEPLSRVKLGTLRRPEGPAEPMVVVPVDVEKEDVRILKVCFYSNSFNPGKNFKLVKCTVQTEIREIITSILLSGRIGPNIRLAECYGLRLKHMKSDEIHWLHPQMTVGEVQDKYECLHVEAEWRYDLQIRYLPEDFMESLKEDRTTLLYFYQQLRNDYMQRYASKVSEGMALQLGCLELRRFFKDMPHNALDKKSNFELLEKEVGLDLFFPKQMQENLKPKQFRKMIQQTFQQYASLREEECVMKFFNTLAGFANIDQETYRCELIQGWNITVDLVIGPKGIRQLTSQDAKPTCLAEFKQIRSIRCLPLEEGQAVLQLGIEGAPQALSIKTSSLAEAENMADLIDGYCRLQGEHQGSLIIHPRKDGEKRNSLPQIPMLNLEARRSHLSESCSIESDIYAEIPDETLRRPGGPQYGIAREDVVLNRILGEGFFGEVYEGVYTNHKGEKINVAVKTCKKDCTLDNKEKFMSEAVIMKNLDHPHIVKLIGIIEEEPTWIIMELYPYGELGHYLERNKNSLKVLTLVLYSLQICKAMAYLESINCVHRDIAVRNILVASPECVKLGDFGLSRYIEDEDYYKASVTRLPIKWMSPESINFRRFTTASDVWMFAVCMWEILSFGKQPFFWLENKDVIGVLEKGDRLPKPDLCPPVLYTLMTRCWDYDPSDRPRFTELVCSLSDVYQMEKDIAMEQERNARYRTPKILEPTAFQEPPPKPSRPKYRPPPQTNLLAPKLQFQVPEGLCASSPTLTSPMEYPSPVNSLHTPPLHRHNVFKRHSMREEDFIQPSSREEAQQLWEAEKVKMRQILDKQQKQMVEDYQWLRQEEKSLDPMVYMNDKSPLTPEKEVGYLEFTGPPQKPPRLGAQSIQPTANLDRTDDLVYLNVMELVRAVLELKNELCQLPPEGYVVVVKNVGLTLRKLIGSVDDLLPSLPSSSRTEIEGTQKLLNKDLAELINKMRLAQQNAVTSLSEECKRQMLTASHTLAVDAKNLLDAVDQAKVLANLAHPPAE

panel of 442 kinases [5] = target: T5, panel of 442 kinases (Homo sapiens, UniProt P20794); details: kinase MAK; for remaining activity at 1 µM: read-out: % of control at 1 µM
T5 construct: purchased Ambit Biosciences (scanMAXX KINOMEscan)
T5 sequence (P20794 1-623): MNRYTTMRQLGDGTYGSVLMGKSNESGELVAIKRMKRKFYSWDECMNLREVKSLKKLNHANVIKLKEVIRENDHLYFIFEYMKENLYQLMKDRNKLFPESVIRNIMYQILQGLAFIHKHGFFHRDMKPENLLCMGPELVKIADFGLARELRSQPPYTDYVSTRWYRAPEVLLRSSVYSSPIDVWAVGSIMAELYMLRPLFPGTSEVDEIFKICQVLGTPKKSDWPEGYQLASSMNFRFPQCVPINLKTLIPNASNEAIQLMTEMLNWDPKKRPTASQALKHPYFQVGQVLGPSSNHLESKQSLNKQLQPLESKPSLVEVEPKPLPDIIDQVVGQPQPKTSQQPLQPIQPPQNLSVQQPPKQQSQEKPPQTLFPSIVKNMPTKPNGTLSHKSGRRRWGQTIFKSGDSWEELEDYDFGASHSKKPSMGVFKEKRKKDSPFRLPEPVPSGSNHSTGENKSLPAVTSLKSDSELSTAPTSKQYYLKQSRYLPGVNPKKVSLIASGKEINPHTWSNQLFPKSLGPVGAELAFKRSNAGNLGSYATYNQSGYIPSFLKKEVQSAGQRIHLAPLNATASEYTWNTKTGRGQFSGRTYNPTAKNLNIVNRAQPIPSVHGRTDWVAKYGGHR

[6] = 10 µM, read-out: % of control at 10 µM

T1 sequence (P36894 24-532): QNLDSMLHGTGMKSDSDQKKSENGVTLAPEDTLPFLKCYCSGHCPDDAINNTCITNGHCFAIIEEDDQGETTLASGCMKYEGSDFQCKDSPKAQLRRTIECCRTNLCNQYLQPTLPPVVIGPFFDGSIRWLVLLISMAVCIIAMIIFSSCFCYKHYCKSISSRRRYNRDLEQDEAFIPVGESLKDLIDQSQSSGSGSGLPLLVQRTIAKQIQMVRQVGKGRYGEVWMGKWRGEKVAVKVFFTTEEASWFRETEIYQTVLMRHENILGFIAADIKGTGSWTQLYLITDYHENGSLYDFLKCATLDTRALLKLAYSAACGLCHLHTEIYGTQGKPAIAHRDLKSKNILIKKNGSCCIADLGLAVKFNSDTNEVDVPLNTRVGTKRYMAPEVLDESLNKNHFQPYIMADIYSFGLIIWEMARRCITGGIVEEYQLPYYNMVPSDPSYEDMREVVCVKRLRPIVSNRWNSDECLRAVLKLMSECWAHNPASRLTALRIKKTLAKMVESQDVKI

Row | Structure (SMILES) | remaining activity at 1 µM (panel of 442 kinases [1]) [%] | remaining activity at 10 µM (panel of 442 kinases [1]; [6]) [%] | remaining activity at 1 µM (panel of 442 kinases [2]) [%] | remaining activity at 10 µM (panel of 442 kinases [2]; [6]) [%] | remaining activity at 1 µM (panel of 442 kinases [3]) [%] | remaining activity at 10 µM (panel of 442 kinases [3]; [6]) [%] | remaining activity at 1 µM (panel of 442 kinases [4]) [%] | remaining activity at 10 µM (panel of 442 kinases [4]; 10 µM, read-out: PYK2 (% of control at 10 µM)) [%] | remaining activity at 1 µM (panel of 442 kinases [5]) [%] | remaining activity at 10 µM (panel of 442 kinases [5]; [6]) [%]
1 | Nc1cc(C(F)(F)F)c(-c2cc(N3CCOCC3)nc(N3CCOCC3)n2)cn1 [Buparlisib] | 100 | 100 | 87 | 94 | 100 | 100 | 100 | 100 | 98 | 89
2 | Cn1c(=O)n(-c2ccc(C(C)(C)C#N)cc2)c2c3cc(-c4cnc5ccccc5c4)ccc3ncc21 [Dactolisib, 2-methyl-2-[4-(3-methyl-2-oxo-8-quinolin-3-yl-2,3-dihydroimidazo[4,5-c]quinolin-1-yl)-phenyl] propionitrile] | 98 |  | 100 |  | 81 |  | 86 |  | 64 | 
3 | COc1ncc(-c2ccc3nccc(-c4ccnnc4)c3c2)cc1NS(=O)(=O)c1ccc(F)cc1F [Omipalisib] | 100 |  | 100 |  | 84 |  | 100 |  | 71 | 
4 | FC(F)c1nc2ccccc2n1-c1nc(N2CCOCC2)nc(N2CCOCC2)n1 [ZSTK474, 2-(difluoromethyl)-1-[4,6-di(4-morpholinyl)-1,3,5-triazin-2-yl]-1H-benzimidazole] | 58 |  | 100 |  | 87 |  | 100 |  | 87 | 
